Test results reported in US20260258030A1, “USE AND TREATMENT METHOD OF AZETIDINE DERIVATIVE” (SICHUAN KELUN-BIOTECH BIOPHARMACEUTICAL CO., LTD., priority 2022, published 2026).

Assays:
[1] = system: STAT5 phosphorylation induced by cytokine IL-2 stimulation in CD4+ T cells; assay: Inhibition of STAT5 phosphorylation induced by IL-2 in CD4+ T cells in human whole blood (flow cytometry); type: cell-based
Excerpt: (§1) The inhibitory effect of Compound 8 on STAT5 phosphorylation induced by cytokine IL-2 stimulation in CD4+ T cells in human whole blood, as well as on STAT3 phosphorylation induced by cytokine IL-6 stimulation in CD4+ T cells in human whole blood, was detected using flow cytometry.

[2] = system: STAT3 phosphorylation induced by cytokine IL-6 stimulation in CD4+ T cells; assay: Inhibition of STAT3 phosphorylation induced by IL-6 in CD4+ T cells in human whole blood (flow cytometry); type: cell-based
Excerpt: as §1

[3] = biological target: p70S6K (p70 ribosomal protein S6 kinase) (Homo sapiens, UniProt P23443); assay: In vitro kinase inhibition, enzymatic assay, p70S6K; type: biochemical; conditions: at a concentration of 200 nM; read-out: inhibition rate on p70S6K
Chain of p70S6K (p70 ribosomal protein S6 kinase) (P23443 whole entry): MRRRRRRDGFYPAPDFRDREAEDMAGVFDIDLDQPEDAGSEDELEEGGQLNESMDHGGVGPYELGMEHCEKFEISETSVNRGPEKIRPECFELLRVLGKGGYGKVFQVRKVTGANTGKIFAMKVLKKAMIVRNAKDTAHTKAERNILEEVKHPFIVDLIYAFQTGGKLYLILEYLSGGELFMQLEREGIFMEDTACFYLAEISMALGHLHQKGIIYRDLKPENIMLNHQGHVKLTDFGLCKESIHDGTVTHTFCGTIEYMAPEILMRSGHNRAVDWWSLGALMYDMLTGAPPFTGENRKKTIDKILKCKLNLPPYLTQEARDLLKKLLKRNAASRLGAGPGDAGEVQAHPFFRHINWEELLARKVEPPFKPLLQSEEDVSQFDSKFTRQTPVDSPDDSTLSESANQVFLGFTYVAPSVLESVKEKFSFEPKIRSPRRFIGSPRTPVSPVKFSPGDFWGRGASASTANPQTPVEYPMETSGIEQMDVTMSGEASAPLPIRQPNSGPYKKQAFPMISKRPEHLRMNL
Excerpt: (§2) An in vitro enzymatic assay system was used to test the inhibitory effect of Compound 8 on certain kinase targets.

PKA (protein kinase A) = PKA (protein kinase A) (Homo sapiens, UniProt P17612); assay: In vitro kinase inhibition, enzymatic assay, PKA; type: biochemical; conditions: at a concentration of 200 nM; read-out: inhibition rate on PKA
Excerpt: as §2

## CCS(=O)(=O)N1CC(CC#N)(n2cc(-c3ccnc4[nH]ccc34)cn2)C1 [Compound 8]
[1]
  IC50: 460 ± 30 nM
[2]
  IC50: 1510 ± 60 nM
[3]
  inhibition at 0.2 µM: 67%
PKA (protein kinase A)
  inhibition at 0.2 µM: 75%
